From a melting point compilation (Tetko et al.)

melting point [°C] | SMILES
46 to 49 | OCc1cccc(-c2cccs2)c1
67 to 69 | OCc1cccc(CN2CCCCC2)c1
15 to 17 | CCCc1ccc(-c2ccccc2)cc1
41 to 42 | Brc1ccccc1COc1ccccc1
203 | CC1=C2C3OC(=O)C(C)C3C(O)CC2(C)C=CC1=O (centres undefined)
-8 | CCCCCCCCCCCCC(C)C
22 | CCCCCCCCCCCCCCCCI
242 to 245 | CC1C(C(=O)NN)C1C(=O)NN (centres undefined)
106 | CC(=O)C1(C)CCC2C3CCC4=CC(=O)CCC4=C3CCC21C (centres undefined)
176 | Cc1onc(-c2c(F)cccc2Cl)c1C(N)=S
83 to 86 | O=C(c1ccccc1)c1cc([N+](=O)[O-])ccc1Cl
205 | O=CNC(c1ccccc1)C(O)c1ccccc1 (centres undefined)
119 | OCC1(O)OCC(O)C(O)C1O (centres undefined)
87.5 to 90.8 | N#Cc1cccc(C(=O)Cc2cccc(Cl)c2)c1
108 | NNc1ccc(Br)cc1
105 | CNc1ccc2cc3ccc4c(c3nc2c1CO)COCN4
205 | Cc1ccc(C(=O)c2ccccc2C(=O)O)cc1[N+](=O)[O-]
99 | COc1ccc(Cl)cc1C(=O)O
184 | CC(C)(C)N(NC(=O)c1ccccc1)C(=O)c1ccccc1F
104 to 105 | C/C(CCc1oc2ccccc2c1-c1ccc(C)o1)=N/O
140 | COc1ccc(-c2csc(/C(C#N)=C\c3cccs3)n2)cc1
141 | CCOC(=O)C=Cc1ccc(N=[N+]([O-])c2ccc(C=CC(=O)OCC)cc2)cc1
123 | ON(Cc1ccccc1)Cc1ccccc1
93 | COc1cccc(OC)c1Br
-26 | CCOC(=O)C(C)O (centres undefined)
40 to 41 | O=C(Cl)c1cnn(-c2ccccc2)c1C(F)(F)F
71 | CC(C)(C)c1cc(C(C)(C)C)cc(C(C)(C)C)c1

melting point [°C] | SMILES
148 to 150 | CC1(C)CC(CN2C(=O)C=CC2=O)C(C)(C)N1O (centres undefined)
120 | COc1cc(Cl)c(OC)cc1N
245 | O=C1c2cccc3cccc(c23)C(=O)N1O
40.5 | O=C1CCCCCCC1
124 to 126 | COc1cc(C=O)ccc1OCc1c(F)cccc1Cl
98 | O=C(O)c1cc(F)c(F)c(F)c1
83 to 85 | Brc1ccc(-c2ccccc2)s1
207 | Cc1ccc(N=C(Nc2ccc(C)cc2)c2cc(C(C)(C)C)c(O)c(C(C)(C)C)c2)cc1
360 | Nc1ccc2c3c(cccc13)C(=O)NC2=O
145 to 146 | CCOC(=O)c1cc(I)c(N)c(I)c1
114 | C#C[C@@]1(OC)CC[C@H]2[C@@H]3CCc4cc(OC)ccc4[C@H]3CC[C@@]21C
208 to 209 | Cc1cc(C)c(C2(C)CC(C(=O)c3cc4cc(Br)ccc4o3)C2)c(C)c1 (centres undefined)
235 | Cc1c(-c2ccccc2)oc2c(C(=O)O)cccc2c1=O
76 | O=[N+]([O-])c1ccc(O)cc1C(F)(F)F
-27 | CC1(C)OCC(CO)O1 (centres undefined)
177 to 178 | O=Cc1ccc2oc(C(=O)c3ccc(Br)cc3)cc2c1
-112 | CC(C)CCBr
199 to 201 | c1ccc(-c2ccc(-c3nc4ccc(-c5ccccc5)cc4o3)cc2)cc1
118 to 119 | CCOC(=O)C(C#N)=C(S)Nc1ccccc1
76 | O=C(OCC(COC(=O)c1ccccc1)OC(=O)c1ccccc1)c1ccccc1
-70.7 | CCCCC(=O)OCCC
223 | Cn1[nH]c([N+](=O)[O-])c2c(=O)ccnc1-2
230 to 233 | NNC(=O)c1csc(-c2cccc(Cl)c2Cl)n1
165 | Brc1ccc2cc(Br)ccc2c1
144 to 145 | O=C1OC(c2ccccc2)=NC1=Cc1ccc(-c2cccc([N+](=O)[O-])c2)o1
114 | O=C(O)CCCCC=C(c1ccccc1)c1cccnc1
292 | Nc1nn2c(C(F)(F)F)cc(=O)[nH]c2c1/N=N/c1ccc(S(=O)(=O)O)cc1

melting point [°C] | SMILES
118 to 124 | O=C(N[C@H]1CC=CC[C@H]1C(=O)O)OCc1ccccc1 (relative stereo)
147 | COC(=O)c1ccnc(N)c1
-43 | Fc1ccccc1Cl
157 | O=C(O)c1ccccc1O
41 to 43 | Cn1ccc2c(C#N)cccc21
144 to 145 | CC1OC(O)C(O)C(O)C1O (centres undefined)
158 | COc1ccccc1C=C(C(=O)O)c1ccccc1
52 to 56 | N#CC1(c2ccc(Cl)cc2)CC1
114 to 116 | Nc1cccnc1N
85.5 | Cc1ccc2cnccc2c1
76 | OCc1cccc(C(F)(F)F)c1Cl
-30.1 | CC#CCCCCCCCC
290 | Nc1nc(O)cc(C(F)(F)F)n1
-33 | CCCCCCCOC(=O)CCCCCC
210 | CC1=C(C(=O)OC(C)(C)C)C(c2ccc3c(c2)OCO3)NC(=O)N1 (centres undefined)
28 to 30 | Cc1ccc(F)c([N+](=O)[O-])c1
-50 | CCCCN(CCCC)CCCN
83.5 | Clc1cccc2cc3ccccc3cc12
200 to 202 | NN1C(=O)c2ccccc2C1=O
63 | Cc1cc(C)c(NC(=O)C(F)(F)C(F)(F)C(F)(F)C(F)(F)C(F)(F)C(F)(F)C(F)(F)C(F)(F)F)c(C)c1
51 | CC(C)(C)OC(=O)N1CC(=O)C1
80 | O=C(C1=NOC2C(=O)N(c3cccc4ccccc34)C(=O)C12)c1cccs1 (centres undefined)
99.5 to 102 | N#Cc1ccc(CS(=O)(=O)Cl)cc1
219 to 220 | C/C(=N\CCc1ccccn1)c1c(O)c2ccccc2n(-c2ccccc2)c1=O
19 | C1CCSCC1
15 | CCCCCCCCCCCCCCCCC(C)C
240 | CN(C)c1ccc(N=C(C#N)c2ccc(C(C#N)=Nc3ccc(N(C)C)cc3)cc2)cc1

melting point [°C] | SMILES
22 | CCCCCCCCCCC(C)C(=O)O (centres undefined)
62 | OCCc1cccc2ccccc12
190 | N=C1NC(=N)c2ccccc21
218 | COc1ccc2cc1Oc1ccc(cc1)CC1c3cc(c(OC)cc3CCN1C)Oc1c(OC)c(OC)cc3c1C(C2)N(C)CC3 (centres undefined)
169 | C=CCN1CCCC1CNC(=O)c1cc(S(=O)(=O)NC)c(N)cc1OC (centres undefined)
47 | CC(C)c1cccc(O)c1O
172 | COc1ccc(C=NC2=NC(C(F)(F)F)N=N2)cc1 (centres undefined)
271 | COc1ccccc1-n1[nH]cc2c(=O)ncnc1-2
104 | O=S(=O)(Cl)c1ccc(S(=O)(=O)c2ccccc2)s1
255 to 257 | COc1ccc(C=NN=C2NC(=O)C(=Cc3ccccc3)S2)cc1
143 | COC(=O)c1ccc(O)c(N)c1
180 to 182 | O=c1c2ccccc2oc2ncccc12
-100 | CC1=CC1
113 | COC(=O)[C@H](CC(=O)O)Cc1cccc2ccccc12
35.5 | Nc1c(F)c(F)c(F)c(F)c1F
130 | CCC(COCCOc1c(I)cc(I)c(NC(C)=O)c1I)C(=O)O (centres undefined)
0 | C#CCCCCCCCCCCCC
196 | COC(=O)c1ccccc1S(=O)(=O)NC(=O)Nc1nc(OC(F)F)cc(OC(F)F)n1
144 to 148 | CC(C)(C)c1cc(C(=O)c2ccccc2)c(O)cc1O
196 to 200 | Nc1ccccc1C(=O)c1ccccc1C(=O)O
109 to 112 | N#Cc1ccc(OC2CCOCC2)cc1
180 | O=C(OCC(O)CO)c1ccccc1Nc1ccnc2c(C(F)(F)F)cccc12 (centres undefined)
-122 | CCSC(C)C
68 to 72 | CCOC(=O)CC(=O)c1cc(F)c(Cl)nc1Cl

SMILES | melting point [°C]
Cc1cccc([N+](=O)[O-])c1O | 70
O=[N+]([O-])c1cc(I)cc([N+](=O)[O-])c1 | 101
CC1CN2CC(=O)Nc3ccc(Cl)cc3C2(c2ccccc2)O1 (centres undefined) | 186
O=C1NC(=O)C(=NNc2ccc(Cl)cc2)C(=O)N1 | 353
COC(=O)c1ccccc1NC(C)=O | 97 to 101
O=C(CF)c1ccccc1 | 29
C=CCc1ccccc1 | -40
CC(C)(C)c1cc([N+](=O)[O-])cc([N+](=O)[O-])c1O | 126
CC12CCC3C(CCC4CC(OCc5ccccc5)CCC43C)C1CCC2O (centres undefined) | 225
O=C(O)C(F)(F)C(F)(F)C(F)(F)C(F)(F)C(F)(F)C(F)(F)F | 31 to 36
CCOP(=S)(OCC)ON=C(C#N)c1ccccc1 | 6.1
COC(=O)[C@@H]1C[C@@H]2CSCN2[C@@]12C(=O)c1cccc3cccc2c13 | 172
COc1cc(Cl)c(OC)cc1Cl | 134
CN(C)c1ccc(N=Nc2ccccc2)cc1 | 117
C=COC=C | -101
CCC(=O)OC1CCC2(C)C(=CCC3C2CCC2(C)C(OC(=O)CC)CCC32)C1 (centres undefined) | 113
CN(c1c(F)c(F)c(F)c(F)c1F)[N+](=O)[O-] | 39.5
COCCl | -104
O=C(CCCCl)c1ccc(F)cc1 | 6
CCCCOC(=O)CCC(=O)OCCCC | -29.2
C=CCc1cc(OC)c2c(c1OC)OCO2 | 29.5
Nc1ccccc1C(=O)OCC=Cc1ccccc1 | 61
ClCOCCl | -41.5
O=[N+]([O-])c1ccc(/C(Cl)=C\c2cccc(/C=C(/Cl)c3ccc([N+](=O)[O-])cc3[N+](=O)[O-])c2)c([N+](=O)[O-])c1 | 215
